Laboratory results taken from article PMC7564829, “Potent Broad-Spectrum Antibacterial Activity of Amphiphilic Peptides against Multidrug-Resistant Bacteria” (Microorganisms, 2020).

Columns and labels:
[1] = tested on: E. coli 1F28; test: Cytoplasmic membrane potential (DiSC3(5)); format: cell-based; settings: 0 to 128 μg/mL, 60 min
Method: A fluorescent probe DiSC3(5) (Aladdin, Shanghai, China) was utilized to evaluate the effect of WRK-12 on bacterial membrane potential. E. coli 1F28 cells were probed with 3,3′-dipropylthiadicarbocyanine iodide (DiSC3(5), 0.5 μM) for 30 min, and then treated with WRK-12 (0 to 128 μg/mL) or colistin (128 μg/mL) for 60 min. Subsequently, the dissipated membrane potential was determined by monitoring the fluorescence intensity (λexcitation = 622 nm, λemission = 670 nm) using a Microplate reader (Tecan, Männedorf, Switzerland).

[2] = molecular target: papain (Carica papaya, UniProt P00784); test: Proteolytic stability (residual antibacterial activity by MIC); format: in vitro ADME; settings: papain 10 mg/mL, 1 h preincubation; residual MIC against E. coli 1F28
Sequence of papain (P00784 134-345): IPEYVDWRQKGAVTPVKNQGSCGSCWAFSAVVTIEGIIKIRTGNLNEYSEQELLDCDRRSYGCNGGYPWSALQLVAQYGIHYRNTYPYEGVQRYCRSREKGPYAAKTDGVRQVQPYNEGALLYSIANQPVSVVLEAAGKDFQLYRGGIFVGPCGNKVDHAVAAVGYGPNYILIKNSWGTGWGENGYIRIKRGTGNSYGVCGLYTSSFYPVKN
Source text: Thermal, pH and proteolytic stability.

[3] = tested on: MRSA T144; test: MIC/MBC, broth micro-dilution; format: cell-based, Staphylococcus aureus; settings: MRSA T144
Method: (§1) Experiments were performed with two biological replicates.

[4] = tested on: E. coli 2A19; test: MIC, tigecycline-resistant clinical isolate; format: cell-based; settings: E. coli 2A19, tigecycline-resistant clinical isolate; broth micro-dilution
Method: as §1

[5] = tested on: E. coli 2W25; test: MIC, tigecycline-resistant clinical isolate; format: cell-based; settings: E. coli 2W25, water, tigecycline-resistant clinical isolate; broth micro-dilution
Method: as §1

[6] = tested on: E. coli 1F28 (tet(X4)); test: MIC/MBC, broth micro-dilution; format: cell-based; settings: E. coli 1F28 (tet(X4))
Method: as §1

[7] = tested on: E. coli B3-1 (tet(X4)); test: MIC/MBC, broth micro-dilution; format: cell-based; settings: E. coli B3-1 (tet(X4))
Method: as §1

[8] = tested on: E. faecalis A4 (VRE); test: MIC/MBC, broth micro-dilution; format: cell-based; settings: E. faecalis A4 (VRE)
Method: as §1

[9] = broth micro-dilution CLSI 2018, MHB, 18 h, 37 °C
[10] = lowest concentration killing 99.9%, plated on MHA

## Ac-WRLRWKTRWRLK-NH2 [WRK-12]
[1]
  membrane potential (ΔΨ), DiSC3(5) fluorescence: significantly dissipated membrane potential
[2]
  proteolytic stability: sensitive
[3]; [9]
  MIC: 2 µg/mL
[3]; [10]
  MBC: 2 µg/mL
[4]
  MIC: 16 µg/mL
[5]
  MIC: 4 µg/mL
[6]; [9]
  MIC: 2 µg/mL
[6]; [10]
  MBC: 8 µg/mL
[7]; [9]
  MIC: 2 µg/mL
[7]; [10]
  MBC: 2 µg/mL
[8]; [9]
  MIC: 4 µg/mL
[8]; [10]
  MBC: 8 µg/mL
